Source: patent US20060211672A1, “Use of estrogen receptor-beta selective agonists for radiation-or chemotherapy-induced mucositis and radiation cystitis” (Wyeth, priority 2005, published 2006)

System: radiation-induced mucositis
Assay: Acute radiation model of oral mucositis in hamsters
Format: in vivo, Syrian Golden Hamsters
Details: for % Days with mucositis score ≧3 / Days with mucositis score ≧3: once daily beginning on day -1, 40 Gy radiation day 0, scored day 6 to 28; for Days with mucositis score ≧3: Total Days 240
Source text: The acute radiation model in hamsters has proven to be an accurate, efficient and cost-effective technique to provide a preliminary evaluation of anti-mucositis compounds (Sonis et al., Oral Surg Oral Med Oral Pathol 1990; 69(4):437-448). The course of mucositis in this model is well defined and results in peak scores approximately 14-16 Days following radiation. The acute model has little systemic toxicity, resulting in few hamster deaths which makes the acute model amenable for initial efficacy studies. The acute model has also been used to study specific mechanistic elements in the pathogenesis of mucositis.
Forty (40) Male LVG Syrian Golden Hamsters (Charles River Laboratories), aged 5 to 6 weeks, with average body weight of 116.3 g at study commencement, were used. Animals were individually numbered using an ear punch and housed 10 animals per cage. Animals were fed with a Purina Labdiet® 5061 rodent diet and water was provided ad libitum. Animals were acclimatized for two days prior to study commencement.
Animals were randomly and prospectively divided into four (4) treatment groups prior to irradiation. Mucositis was induced using a standardized acute radiation protocol, where a single dose of radiation (40 Gy/dose) was administered to all animals on day 0. Radiation was generated with a 160 kilovolt potential (15-ma) source at a focal distance of 30 cm, hardened with an AI filtration system. Irradiation targeted the left buccal pouch mucosa at a rate of 3.2 Gy/minute. Prior to irradiation, animals were anesthetized with an intra-peritoneal injection of Ketamine (160 mg/kg) and Xylazine (8 mg/kg). The left buccal pouch was everted, fixed and isolated using a lead shield.
Controls or 3-(3-Fluoro-4-hydroxy-phenyl)-7-hydroxy-naphthalene-1-carbonitrile (Compound 1) were given in the volumes and by the routes described in Table 1 and dosing began the day before radiation treatment.
The grade of mucositis was scored, beginning day 6, and for every second day thereafter, through and including day 28. For the evaluation of mucositis, the animals were anesthetized with an inhalation anesthetic, and the left pouch everted. Mucositis was scored visually by comparison to a validated photographic scale, ranging from 0 for normal, to 5 for severe ulceration (clinical scoring). In descriptive terms, this scale is defined as follows: Score: Description: • 0 Pouch completely healthy. No erythema or vasodilation. • 1 Light to severe erythema and vasodilation. No erosion of mucosa. • 2 Severe erythema and vasodilation. Erosion of superficial aspects of mucosa leaving denuded areas. Decreased stippling of mucosa. • 3 Formation of off-white ulcers in one or more places. Ulcers may have a yellow/gray appearance due to pseudomembrane. Cumulative size of ulcers should equal about ¼ of the pouch. Severe erythema and vasodilation. • 4 Cumulative seize of ulcers should equal about ½ of the pouch. Loss of pliability. Severe erythema and vasodilation. • 5 Virtually all of pouch is ulcerated. Loss of pliability (pouch can only partially be extracted from mouth)
A score of 1-2 is considered to represent a mild stage of the disease, whereas a score of 3-5 is considered to indicate moderate to severe mucositis.
The effect on mucositis of each route of administration of Compound 1 compared to vehicle was assessed by determining the difference in the number of days hamsters in each group have ulcerative (score ≧3) mucositis. Statistical significance was assessed by a Chi-squared test and p<0.05 was considered statistically significant.

For `N#Cc1cc(-c2ccc(O)c(F)c2)cc2ccc(O)cc12` [Compound 1, 3-(3-Fluoro-4-hydroxy-phenyl)-7-hydroxy-naphthalene-1-carbonitrile], the “% Days with mucositis score ≧3” value (Gavage, 10 mg/kg) was 44%, the “Days with mucositis score ≧3” value (Gavage, 10 mg/kg) was 106 days and the “% Days with mucositis score ≧3” value (Topical (intrapouch), 500 nM) was 30%. The “Days with mucositis score ≧3” value (Topical (intrapouch), 500 nM) was 72 days, the “change in the number of days hamsters had ulcerative (score ≧3) mucositis, in words” value (administered by gavage, vs vehicle) was “no significant change” and the “number of days animals experienced ulcerative mucositis, in words” value (administered topically (into the pouch), vs vehicle) was “significantly reduced”.
